Results as given in patent US20240181022A1, “AMURINS LYSINS, AND LYSIN-ANTIMICROBIAL PEPTIDE (AMP) CONSTRUCTS ACTIVE AGAINST GRAM-NEGATIVE BACTERIA” (priority 2021, published 2024).
Several values for one entry are separate records, joined by “and”; a condition that tells them apart may be missing. Equal entries are not always repeated. Where no end group is shown, it is not given here. [ ]: non-standard residue; d: D form.

Columns and labels:
P. aeruginosa = test: Checkerboard synergy assay (FICI) with antibiotics against P. aeruginosa; type: cell-based, Pseudomonas aeruginosa; details: for Antibiotic MIC (single agent): P. aeruginosa strain AR-769; for Antibiotic FIC / Antibiotic MIC (combo): P. aeruginosa strain AR-769, in combination with GN370; for Antibiotic MIC (combo): in µg/mL
Method: Any known method to assess MIC may be used.
Checkerboards are constructed by first preparing columns of e.g., a 96-well polypropylene microtiter plate, wherein each well has the same amount of antibiotic diluted 2-fold along the horizontal axis. […] Bacteria are added to the drug combinations at concentrations of 1×10^5 […] in CAA, for example, with or without human serum or pulmonary surfactant. […] Summation fractional inhibitory concentrations (ΣFICs) are calculated for each drug and the minimum ΣFIC value (ΣFICmin) is used to determine the effect of the Chp peptide/antibiotic combination.
The synergy of GN370 with meropenem was evaluated against 3 different strains of P. aeruginosa and three different strains of B. cenocepacia.
GN370 was further tested in combination with up to seven additional antibiotics (in addition to meropenem) against a variety of bacterial strains, including P. aeruginosa, A. baumannii, E. coli, E. cloacae, and K. pneumoniae. GN370 and the subject antibiotics were tested in a checkerboard assay format, and FICI values were determined, wherein ≤0.5 indicates synergy, >0.5-≤1 indicates additive; and >1 indicates indifferent.

M. smegmatis = test: MIC against M. smegmatis; type: cell-based, Mycobacterium smegmatis; details: M. smegmatis (MC 155); CAAT media
M. fortuitum = test: MIC against M. fortuitum; type: cell-based, Mycobacterium fortuitum; details: M. fortuitum (ATCC 6841); CAAT media
M. avium = test: MIC against M. avium; type: cell-based, Mycobacterium avium; details: M. avium (ATCC 700898); CAAT media
M. kansasii = test: MIC against M. kansasii; type: cell-based, Mycobacterium kansasii; details: M. kansasi (ATCC 12478); CAAT media
M. scrofulaceum = test: MIC against M. scrofulaceum; type: cell-based, Mycobacterium scrofulaceum; details: M. scrofulaceum (ATCC 19981); CAAT media
M. intracellulare = test: MIC against M. intracellulare; type: cell-based, Mycobacterium intracellulare; details: M. intracellulare (ATCC 13950); CAAT media
M. tuberculosis = type: cell-based, Mycobacterium tuberculosis; details: M. tuberculosis (ATCC 35817); (ADC, T) media

## CO/N=C(\C(=O)N[C@@H]1C(=O)N2C(C(=O)[O-])=C(C[N+]3(C)CCCC3)CS[C@H]12)c1csc(N)n1 [Cefepime]
P. aeruginosa
  Antibiotic MIC (single agent): 256 µg/mL
  Antibiotic FIC: 0.25 and 0.125
  Antibiotic MIC (combo): 64 and 32

## CC(C)(O/N=C(\C(=O)N[C@@H]1C(=O)N2C(C(=O)[O-])=C(C[n+]3ccccc3)CS[C@H]12)c1csc(N)n1)C(=O)O [Ceftazidime]
P. aeruginosa
  Antibiotic MIC (single agent): 512 µg/mL
  Antibiotic FIC: 1
  Antibiotic MIC (combo): 512

## AGT915: SEQ ID NO: 63, Marine gokushovirus (MRRYNVNKGKSAKKFRKQVSKTKVANLRSNPMRGGWRL; listed as Marine gokushovirus)
M. smegmatis
  MIC: 1 µg/mL
M. fortuitum
  MIC: 1 µg/mL
M. avium
  MIC: >64 Tg/mL
M. kansasii
  MIC: 1 µg/mL
M. scrofulaceum
  MIC: >64 µg/mL
M. intracellulare
  MIC: >64 µg/mL
M. tuberculosis
  MIC: 4 µg/mL

## ALCES1: SEQ ID NO: 59, Alces alces faeces associated microvirus (MAKKIRNKARDRRIFTRTASRMHKANRTPRFMRGGIRL; Alces alces faeces associated microvirus MP12 5423)
M. smegmatis
  MIC: 2 µg/mL
M. fortuitum
  MIC: 4 µg/mL
M. avium
  MIC: 8 Tg/mL
M. kansasii
  MIC: 2 µg/mL
M. scrofulaceum
  MIC: 2 µg/mL
M. intracellulare
  MIC: 2 µg/mL
M. tuberculosis
  MIC: 8 µg/mL

## AVQ206: SEQ ID NO: 60, Gokushovirinae environmental samples (MRRKKMSRGKSKKLFRRTAKRVHRKNLRARPMRGGIRM)
M. smegmatis
  MIC: 16 µg/mL
M. fortuitum
  MIC: 2 µg/mL
M. avium
  MIC: 1 Tg/mL
M. kansasii
  MIC: 2 µg/mL
M. scrofulaceum
  MIC: 4 µg/mL
M. intracellulare
  MIC: 4 µg/mL
M. tuberculosis
  MIC: 8 µg/mL

## Chp1: Chp peptide, SEQ ID NO: 1, Phage Chp1 (MVRRRRLRRRISRRIFRRTVARVGRRRRSFRGGIRF; Chlamydia virus Chp1)
M. smegmatis
  MIC: 16 µg/mL
M. fortuitum
  MIC: 16 µg/mL
M. avium
  MIC: 4 Tg/mL
M. kansasii
  MIC: 4 µg/mL
M. scrofulaceum
  MIC: 4 µg/mL
M. intracellulare
  MIC: 4 µg/mL
M. tuberculosis
  MIC: 32 µg/mL

## Chp4: Chp peptide, SEQ ID NO: 4, Phage 4 (MARRYRLSRRRSRRLFSRTALRMHRRNRLRRIMRGGIRF; Chlamydia phage 4)
M. smegmatis
  MIC: 4 µg/mL
M. fortuitum
  MIC: 4 µg/mL
M. avium
  MIC: 1 Tg/mL
M. kansasii
  MIC: >0.125 µg/mL
M. scrofulaceum
  MIC: 2 µg/mL
M. intracellulare
  MIC: 1 µg/mL
M. tuberculosis
  MIC: 16 µg/mL

## Chp8: Chp peptide, SEQ ID NO: 8 (MSKKRSRMSRRRSKKLFSKTALRTKSVNTRPPMRGGFRF; listed as Chlamydia trachomatis)
M. smegmatis
  MIC: 8 µg/mL
M. fortuitum
  MIC: 2 µg/mL
M. avium
  MIC: 8 Tg/mL
M. kansasii
  MIC: 4 µg/mL
M. scrofulaceum
  MIC: 4 µg/mL
M. intracellulare
  MIC: 4 µg/mL
M. tuberculosis
  MIC: 8 µg/mL

## Chp9: Chp peptide, SEQ ID NO: 9 (MSLRRHKLSRKASKRIFRKGASRTKTLNTRATPMRGGFRI; listed as Chlamydia trachomatis)
M. smegmatis
  MIC: 8 µg/mL
M. fortuitum
  MIC: 4 µg/mL
M. avium
  MIC: >64 Tg/mL
M. kansasii
  MIC: 8 µg/mL
M. scrofulaceum
  MIC: 8 µg/mL
M. intracellulare
  MIC: 4 µg/mL
M. tuberculosis
  MIC: 8 µg/mL

## Chp10: Chp peptide, SEQ ID NO: 10 (MKRRKLSKKKSRKIFTRGAVNVKKRNLRARPMRGGFRI; listed as Chlamydia trachomatis)
M. smegmatis
  MIC: 1 µg/mL
M. fortuitum
  MIC: 1 µg/mL
M. avium
  MIC: 0.5 Tg/mL
M. kansasii
  MIC: 4 µg/mL
M. scrofulaceum
  MIC: 0.5 µg/mL
M. intracellulare
  MIC: 0.5 µg/mL
M. tuberculosis
  MIC: 8 µg/mL

## Ecp2: SEQ ID NO: 18, hypothetical protein (E. coli) (MARSRRRMSKRSSRRSFRKYAKSHKKNFKARSMRGGIRL; listed as Escherichia coli)
M. smegmatis
  MIC: 8 µg/mL
M. fortuitum
  MIC: 4 µg/mL
M. avium
  MIC: 2 Tg/mL
M. kansasii
  MIC: 2 µg/mL
M. scrofulaceum
  MIC: 4 µg/mL
M. intracellulare
  MIC: 8 µg/mL
M. tuberculosis
  MIC: 4 µg/mL

## Ecp3-M1: Modified variant of Ecp3, SEQ ID NO: 100 (MA[dR]S[dR][dR][dR]MS[dK][dR]SS[dR][dR]SF[dR][dK]YA[dK]TH[dK][dK]NF[dK]A[dR]SM[dR]GGI[dR]L)
M. smegmatis
  MIC: 1 µg/mL
M. fortuitum
  MIC: 8 µg/mL
M. avium
  MIC: 0.5 Tg/mL
M. kansasii
  MIC: 2 µg/mL
M. scrofulaceum
  MIC: 2 µg/mL
M. intracellulare
  MIC: 8 µg/mL
M. tuberculosis
  MIC: 8 µg/mL

## Ecp3: SEQ ID NO: 55, nonstructural protein (Escherichia) (MARSRRRMSKRSSRRSFRKYAKTHKKNFKARSMRGGIRL; listed as Escherichia sp.)
M. smegmatis
  MIC: 8 µg/mL
M. fortuitum
  MIC: 2 µg/mL
M. avium
  MIC: 1 Tg/mL
M. kansasii
  MIC: 2 µg/mL
M. scrofulaceum
  MIC: 2 µg/mL
M. intracellulare
  MIC: 8 µg/mL
M. tuberculosis
  MIC: 8 µg/mL

## Fen7875: SEQ ID NO: 65, Gokushovirinae Fen7875_21 (MKPLKRKPVQKARSAAKFRRNVSTVKAANMAVKPMRGGWRF)
M. smegmatis
  MIC: 16 µg/mL
M. fortuitum
  MIC: 8 µg/mL
M. avium
  MIC: 2 Tg/mL
M. kansasii
  MIC: 32 µg/mL
M. scrofulaceum
  MIC: 16 µg/mL
M. intracellulare
  MIC: 8 µg/mL
M. tuberculosis
  MIC: 4 µg/mL

## Gkh1: SEQ ID NO: 13, Marine gokushovirus (MRRPRKMNYKKSKRMFSRTAARTHRKNSLRGSRPMRGGIRL; listed as Marine gokushovirus)
M. smegmatis
  MIC: 4 µg/mL
M. fortuitum
  MIC: 1 µg/mL
M. avium
  MIC: 4 Tg/mL
M. kansasii
  MIC: 2 µg/mL
M. scrofulaceum
  MIC: 8 µg/mL
M. intracellulare
  MIC: 4 µg/mL
M. tuberculosis
  MIC: 8 µg/mL

## HH3930: SEQ ID NO: 64, Richelia intracellularis HH01 (MRPVKRSRVNKARSAGKFRKQVGKTKMANLRSNPMRGGWRL)
M. smegmatis
  MIC: 16 µg/mL
M. fortuitum
  MIC: 8 µg/mL
M. avium
  MIC: 4 Tg/mL
M. kansasii
  MIC: 32 µg/mL
M. scrofulaceum
  MIC: 16 µg/mL
M. intracellulare
  MIC: 16 µg/mL
M. tuberculosis
  MIC: 4 µg/mL

## Spi1: SEQ ID NO: 25, Spiroplasma virus SpV4 Orf9 (MAYRGFKTSRVVKHRVRRRWFNHRRRYR; Spiroplasma virus SpV4)
M. smegmatis
  MIC: 16 µg/mL
M. fortuitum
  MIC: 8 µg/mL
M. avium
  MIC: >64 Tg/mL
M. kansasii
  MIC: 0.5 µg/mL
M. scrofulaceum
  MIC: 2 µg/mL
M. intracellulare
  MIC: 4 µg/mL
M. tuberculosis
  MIC: 16 µg/mL

## Spi2-M1: Modified variant of Spi2, SEQ ID NO: 99 (M[dR][dR][dK]V[dK]NT[dK][dR]HQW[dR]LTHSA[dR]SI[dK][dR]ANIMPSNP[dR]GG[dR][dR])
M. smegmatis
  MIC: 1 µg/mL
M. fortuitum
  MIC: 4 µg/mL
M. avium
  MIC: >64 Tg/mL
M. kansasii
  MIC: 4 µg/mL
M. scrofulaceum
  MIC: 16 µg/mL
M. intracellulare
  MIC: >64 µg/mL
M. tuberculosis
  MIC: 8 µg/mL

## Spi2: SEQ ID: 26, Spiroplasma virus SpV4 Orf8 (MRRKVKNTKRHQWRLTHSARSIKRANIMPSNPRGGRRF; Spiroplasma virus SpV4)
M. smegmatis
  MIC: 4 µg/mL
M. fortuitum
  MIC: 4 µg/mL
M. avium
  MIC: >64 Tg/mL
M. kansasii
  MIC: 1 µg/mL
M. scrofulaceum
  MIC: 8 µg/mL
M. intracellulare
  MIC: >64 µg/mL
M. tuberculosis
  MIC: 16 µg/mL

## Unp1: SEQ ID NO: 15, unnamed protein product (uncultured bacterium) (MKMRKRTDKRVFTRTAAKSKKVNIAPKIFRGGIRL)
M. smegmatis
  MIC: 2 µg/mL
M. fortuitum
  MIC: 8 µg/mL
M. avium
  MIC: 1 Tg/mL
M. kansasii
  MIC: 8 µg/mL
M. scrofulaceum
  MIC: 8 µg/mL
M. intracellulare
  MIC: 32 µg/mL
M. tuberculosis
  MIC: 4 µg/mL

## Unp2: SEQ ID NO: 20, unnamed protein product (MRRRRLSRRTSRRFFRKGLKVRRRNLRARPMRGGFRI)
M. smegmatis
  MIC: 4 µg/mL
M. fortuitum
  MIC: 2 µg/mL
M. avium
  MIC: 0.5 Tg/mL
M. kansasii
  MIC: 2 µg/mL
M. scrofulaceum
  MIC: 4 µg/mL
M. intracellulare
  MIC: 1 µg/mL
M. tuberculosis
  MIC: 8 µg/mL

## Unp3-M1: Modified variant of Unp3, SEQ ID NO: 98 (MA[dR][dR][dK][dK]M[dK]G[dK][dR]D[dK][dR]VF[dK]QTAN[dK]T[dK]AINISP[dK]NM[dR]GGT[dR]L)
M. smegmatis
  MIC: 8 µg/mL
M. fortuitum
  MIC: 4 µg/mL
M. avium
  MIC: 8 Tg/mL
M. kansasii
  MIC: 16 µg/mL
M. scrofulaceum
  MIC: 8 µg/mL
M. intracellulare
  MIC: >64 µg/mL
M. tuberculosis
  MIC: 4 µg/mL

## Unp4: SEQ ID NO: 94, Marine gokushovirus (MIVRRHKMSRRRSRKLFSKTASRTRSKNLRSRPMRGGYRI; listed as Marine gokushovirus)
M. smegmatis
  MIC: 16 µg/mL
M. fortuitum
  MIC: 4 µg/mL
M. avium
  MIC: 1 Tg/mL
M. kansasii
  MIC: 4 µg/mL
M. scrofulaceum
  MIC: 4 µg/mL
M. intracellulare
  MIC: 4 µg/mL
M. tuberculosis
  MIC: 16 µg/mL
